According to the supplement of paper PMC11061612:

Key:
Test in all cases: Bliss excess, mean over the matrix (fraction); higher = more synergy
[1] = tested on: IST-MEL1 (Melanoma)
Summary of the method: (§1)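 Cell lines in DMEM/F12 or RPMI with 10% FBS were plated in 1536-well plates, held 24 hours at 37°C, 5% CO2, then given two-drug dose matrices for 72 hours (DMSO typically 0.2%). Viability was read by CellTiter-Glo 2.0 luminescence and scaled as inhibition from 0 (vehicle wells) to 1 (blank wells). Combination Emax is the second-highest inhibition in the matrix; Bliss excess is observed combination effect minus expected EA + EB − EA·EB, EA and EB being single-agent effects.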

[2] = tested on: LCLC-103H (Non-Small Cell Lung Carcinoma)
Summary of the method: as §1

[3] = tested on: LS-1034 (Colorectal Carcinoma)
Summary of the method: as §1

[4] = tested on: MM1S (Plasma Cell Myeloma)
Summary of the method: as §1

[5] = tested on: NB1 (Neuroblastoma)
Summary of the method: as §1

[6] = tested on: NCI-H1876 (Small Cell Lung Carcinoma)
Summary of the method: as §1

[7] = tested on: NCI-H1963 (Small Cell Lung Carcinoma)
Summary of the method: as §1

[8] = tested on: NCI-H226 (Mesothelioma)
Summary of the method: as §1

[9] = tested on: NCI-H2373 (Mesothelioma)
Summary of the method: as §1

[10] = tested on: NMC-G1 (Low Grade Glioma)
Summary of the method: as §1

[11] = tested on: OAW-28 (Ovarian Carcinoma)
Summary of the method: as §1

[12] = tested on: OVCAR-3 (Ovarian Carcinoma)
Summary of the method: as §1

[13] = tested on: SAT (Head and Neck Carcinoma)
Summary of the method: as §1

[14] = tested on: SK-CO-1 (Colorectal Carcinoma)
Summary of the method: as §1

[15] = tested on: SNU-407 (Colorectal Carcinoma)
Summary of the method: as §1

[16] = tested on: SUP-M2 (T-Cell Non-Hodgkin's Lymphoma)
Summary of the method: as §1

[17] = tested on: T47D (Breast Carcinoma)
Summary of the method: as §1

[18] = tested on: T84 (Colorectal Carcinoma)
Summary of the method: as §1

[19] = tested on: ZR-75-30 (Breast Carcinoma)
Summary of the method: as §1

[20] = tested on: SiHa (Cervical Carcinoma)
Summary of the method: as §1

| SMILES | Bliss excess [1] | Bliss excess [2] | Bliss excess [3] | Bliss excess [4] | Bliss excess [5] | Bliss excess [6] | Bliss excess [7] | Bliss excess [8] | Bliss excess [9] | Bliss excess [10] | Bliss excess [11] | Bliss excess [12] | Bliss excess [13] | Bliss excess [14] | Bliss excess [15] | Bliss excess [16] | Bliss excess [17] | Bliss excess [18] | Bliss excess [19] | Bliss excess [20] |
| --- | --- | --- | --- | --- | --- | --- | --- | --- | --- | --- | --- | --- | --- | --- | --- | --- | --- | --- | --- | --- |
| Cc1c2c(nn1C)CSCc1cc(n(C)n1)CSc1cc(c3ccccc3c1)OCCCc1c(C(=O)O)n(C)c3c-2c(Cl)ccc13 [AZD5991] + C1CN(CCC1(C(=O)N[C@@H](CCO)C2=CC=C(C=C2)Cl)N)C3=NC=NC4=C3C=CN4 [Capivasertib] (first compound max 1 µM, 7x7, partner max 3 µM) | 0.0025 | -0.0025 | -0.0042 | -0.0098 | -0.0186 | 0.0708 | 0.0377 | -0.0473 | -0.0671 | -0.0172 | 0.045 | 0.0217 | -0.0072 | -0.0119 | 0.0036 | -0.0079 | -0.0887 | -0.0185 | -0.0119 |  |
| NC1(C(=O)N[C@@H](CCO)c2ccc(Cl)cc2)CCN(c2ncnc3[nH]ccc23)CC1 [Capivasertib] + COc1nnc2ccc(N3CCC(c4ccc(OCCN5CCN(C)C(=O)[C@H]5C)cc4)CC3)nn12 [AZD5153] (first compound max 10 µM, 7x7, partner max 1 µM) | -0.0143 | -0.0028 | 0.0201 | 0.0564 | 0.0085 | 0.0774 | 0.0036 | -0.0165 | 0.0349 |  | 0.0387 | 0.0189 | -0.0508 | -0.0209 | -0.0269 | -0.0322 | 0.0139 | -0.0695 | -0.034 | 0.006 |
| NC1(C(=O)N[C@@H](CCO)c2ccc(Cl)cc2)CCN(c2ncnc3[nH]ccc23)CC1 [Capivasertib] + C[C@@H]1COCCN1C2=NC(=NC(=C2)C3(CC3)[S@](=N)(=O)C)C4=C5C=CNC5=NC=C4 [AZD6738] (first compound max 10 µM, 7x7, partner max 10 µM) | -0.0446 | -0.0607 | -0.0782 | 0.0201 | -0.0341 | 0.0649 | -0.0142 | -0.0775 | -0.0301 |  | 0.0005 | -0.0169 | -0.0345 | -0.0786 | -0.101 | 0.0523 | -0.0095 | -0.111 | -0.057 | 0.0259 |
| NC1(C(=O)N[C@@H](CCO)c2ccc(Cl)cc2)CCN(c2ncnc3[nH]ccc23)CC1 [Capivasertib] + Cn1cnc2c(F)c(Nc3ccc(Br)cc3Cl)c(C(=O)NOCCO)cc21 [Selumetinib] (first compound max 10 µM, 7x7, partner max 10 µM) | 0.0465 | -0.0267 | -0.0123 | 0.0712 | 0.0054 | 0.0122 | 0.0023 | -0.063 | -0.0381 |  | -0.0034 | -0.0223 | 0.0768 | 0.0107 | 0.026 | 0.0835 | -0.0108 | -0.0598 | -0.0071 | -0.0081 |
| COc1cc2ncnc(Nc3ccc(F)c(Cl)c3)c2cc1OCCCN1CCOCC1 [Gefitinib] + CC(C)n1c(=O)n(C)c2cnc3cc(F)c(-c4ccc(OCCCN5CCCCC5)nc4)cc3c21 [AZD1390] (first compound max 10 µM, 7x7, partner max 0.3 µM) | -0.0684 | -0.0119 | -0.0368 | -0.0356 | -0.0419 | -0.074 | -0.0526 | -0.0661 | -0.0751 |  | -0.0392 | -0.056 | -0.0522 | -0.0056 | -0.0783 | -0.0522 | -0.0438 | -0.035 | -0.0587 | -0.0732 |
| CS(=O)(=O)CCNCc1ccc(-c2ccc3ncnc(Nc4ccc(OCc5cccc(F)c5)c(Cl)c4)c3c2)o1 [Lapatinib] + C[C@@H](Oc1cc(-c2cnn(C3CCNCC3)c2)cnc1N)c1c(Cl)ccc(F)c1Cl [Crizotinib] (first compound max 10 µM, 7x7, partner max 10 µM) | -0.0095 | -0.0152 | -0.0407 | 0.0395 | 0.0158 | 0.0167 | -0.0272 | -0.0513 | -0.0258 |  | -0.0177 | -0.0161 | -0.0358 | -0.0721 | -0.0774 | 0.0299 | -0.0223 | -0.006 | -0.0031 | -0.0394 |
| CC(=O)c1c(C)c2cnc(Nc3ccc(N4CCNCC4)cn3)nc2n(C2CCCC2)c1=O [Palbociclib] + CC1(C)CCC(CN2CCN(c3ccc(C(=O)NS(=O)(=O)c4ccc(NCC5CCOCC5)c([N+](=O)[O-])c4)c(Oc4cnc5[nH]ccc5c4)c3)CC2)=C(c2ccc(Cl)cc2)C1 [Venetoclax] (first compound max 10 µM, 7x7, partner max 1 µM) | 0.0117 | -0.0083 | -0.12 | 0.0353 | -0.0154 | 0.0162 | 0.226 | -0.0174 | -0.0421 |  | -0.0112 | -0.0356 | -0.0489 | -0.122 | -0.01 | -0.0058 | 0.0466 | -0.0556 | -0.0434 | -0.0347 |
